From PubChem BioAssay (NCI)
Where “and” joins values, the source holds several entries; their conditions need not be identical. Equal entries are not always repeated.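 Following 48 hours of exposure in 96-well plates, responses at five concentrations were used to interpolate endpoints linearly. GI50 = concentration required for 50% inhibition of growth. TGI marks complete inhibition of growth.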

Columns and labels:
Test in all cases: NCI anticancer screen, dose series, 48 h
SN12C renal = test system: SN12C renal
TK-10 renal = test system: TK-10 renal
M14 melanoma = test system: M14 melanoma
NCI-H23 lung = test system: NCI-H23 lung
SK-OV-3 ovarian = test system: SK-OV-3 ovarian
IGROV1 ovarian = test system: IGROV1 ovarian
UO-31 renal = test system: UO-31 renal
HOP-92 NSCLC = test system: HOP-92 NSCLC
NCI-H522 lung = test system: NCI-H522 lung
OVCAR-4 ovarian = test system: OVCAR-4 ovarian

Row | SMILES | GI50 (SN12C renal) | TGI (SN12C renal) | GI50 (TK-10 renal) [µM] | TGI (TK-10 renal) | GI50 (M14 melanoma) | TGI (M14 melanoma) | GI50 (NCI-H23 lung) | TGI (NCI-H23 lung) | GI50 (SK-OV-3 ovarian) | TGI (SK-OV-3 ovarian) | GI50 (IGROV1 ovarian) | TGI (IGROV1 ovarian) | GI50 (UO-31 renal) | TGI (UO-31 renal) | GI50 (HOP-92 NSCLC) | TGI (HOP-92 NSCLC) | GI50 (NCI-H522 lung) | TGI (NCI-H522 lung) | GI50 (OVCAR-4 ovarian) [µM] | TGI (OVCAR-4 ovarian)
1 | Nc1[nH]nc(Nc2ccccc2)c1-c1nc2ccccc2s1 | 1.58 µM | 3.24 µM | 3.02 | 9.1 µM | 1.55 µM | 3.58 µM | 1.73 µM | 5.04 µM | 4.63 µM | 15.7 µM | 2.58 µM | 8.88 µM | 1.33 µM | 7.16 µM | 1.4 µM | 3.77 µM | 1.58 µM | 3.63 µM | 2.19 | 11.8 µM
2 | O=C(O)/C=C/c1c2ccc(=O)c(O)c-2oc2c(O)c(O)ccc12 |  | 32.3 µM |  | > 100 µM |  | > 100 µM |  | > 100 µM |  | > 100 µM |  | > 100 µM |  | > 100 µM |  | > 100 µM |  | > 100 µM |  | > 100 µM
3 | CC(=O)/C=C1\CC(=O)N(C)c2ccccc2N1 |  | > 100 µM |  | > 100 µM |  | > 100 µM |  | > 100 µM |  | > 100 µM |  | > 100 µM |  | > 100 µM |  | > 100 µM |  | > 100 µM |  | > 100 µM
4 | O=[N+]([O-])c1ccccc1/C=N\NC(=S)N/N=C/c1ccccc1[N+](=O)[O-] | 10.6 µM | > 100 µM | 13.7 | > 100 µM | 3.76 µM | > 100 µM | 10.8 µM | > 100 µM | 6.07 µM | > 100 µM | 3.67 µM | > 100 µM | 5.66 µM | 87.3 µM | 26.2 µM | > 100 µM | 2.15 µM | 21.7 µM | 20.6 | > 100 µM
5 | CCN1C(=O)N(CC)C2C1NN=c1s/c(=C3\C(=O)Nc4ccccc43)c(=O)n12 (stereo not drawn) | 0.6 µM | > 100 µM | 9.37 | 32.6 µM | 0.33 µM | 3.36 µM | 0.752 µM | 24 µM | 0.781 µM | 29.6 µM | 0.616 µM | 24.6 µM | 1.09 µM | > 100 µM | 0.598 µM | 32.5 µM | 0.373 µM | > 43.6 µM | > 59.1 | > 100 µM
6 | CCCCC[C@@H]1CCCC2NC(CCCCCO[Si](c3ccccc3)(c3ccccc3)C(C)(C)C)CCC21 (stereo partly drawn) |  | 28.4 µM |  | 34.8 µM |  | 27.3 µM |  | 31.7 µM |  | 36.8 µM |  | 32.9 µM |  | 26.6 µM |  | 22.8 µM |  | 31.6 µM |  | 21 µM
7 | O=C1c2ccccc2C(=O)N1c1ccc(Cc2ccc(N3C(=O)c4ccccc4C3=O)cc2)cc1 |  | > 100 µM |  | > 100 µM |  | > 100 µM |  | > 100 µM |  | > 100 µM |  | > 100 µM |  | > 100 µM |  | > 100 µM |  | > 100 µM |  | > 100 µM
8 | COc1cc(C[C@H]2COC(=O)[C@]2(O)Cc2ccc(OCc3ccccc3)c(OC)c2)ccc1OCc1ccccc1 | 12.5 µM | > 100 µM | 26.7 | > 100 µM | 47 µM | > 100 µM | 30.6 µM | > 100 µM | > 100 µM | > 100 µM | > 100 µM | > 100 µM | 35.5 µM | > 100 µM | > 100 µM | > 100 µM | 65.2 µM | > 100 µM | > 100 | > 100 µM
9 | COc1ccc([N+](=O)[O-])c2c(NCCCN(C)C)c(C)c(C)nc12 |  | > 100 µM |  | > 100 µM |  | > 100 µM |  | > 100 µM |  | > 100 µM |  | > 100 µM |  | > 100 µM |  | > 100 µM |  | > 100 µM |  | 63.5 µM
10 | CCc1nc(N)nc(N)c1C#CC(C)c1ccc(-c2ccncc2)cc1Cl (stereo not drawn) | 0.0189 µM and 0.148 µM | 5.67 µM and 17.2 µM |  | 4.46 µM and 6.39 µM | < 0.005 µM and 0.0121 µM | 1.61 µM and 10.3 µM | 0.00854 µM and 0.0332 µM | 5.01 µM and 5.71 µM | 0.0977 µM and 0.0932 µM | 2.63 µM and 14.6 µM | < 0.005 µM and 0.0323 µM | 6.71 µM and 19.1 µM | 0.0227 µM and 0.073 µM | 1.47 µM and 13.5 µM | 0.109 µM and 0.547 µM | 1.56 µM and 6.36 µM | 0.0477 µM and 0.0346 µM | 2.97 µM and 4.06 µM |  | 7.39 µM and 26.2 µM
11 | O=C(n1c2ccccc2c2n[nH]c(=S)nc21)C(F)(F)F |  | > 100 µM |  | > 100 µM |  | > 100 µM |  | > 100 µM |  | > 100 µM |  | > 100 µM |  | > 100 µM |  | > 100 µM |  | > 100 µM |  | > 100 µM
12 | CNc1c2ccccc2nc2occ(Cl)c12 | 52.6 µM | > 100 µM | 17.9 | 56.7 µM | 37.2 µM | > 100 µM | 40.9 µM | > 100 µM | 36.8 µM | > 100 µM | 50.5 µM | > 100 µM | 31.3 µM | > 100 µM | 26.9 µM | > 100 µM | 80.3 µM | > 100 µM | 29.4 | > 100 µM
